Reference: paper PMC8589421, “Impact of Type II LRRK2 inhibitors on signaling and mitophagy” (Biochemical Journal, 2021)

Columns and labels:
Rab10 phosphorylation = Rab10 phosphorylation in primary human neutrophils; type: cell-based; conditions: primary human neutrophils from two donors, 45 min
Method: Cell extracts were mixed with a quarter of a volume of NuPage LDS Sample buffer 4× Invitrogen and heated at 95°C for 5 min. […] At the end of electrophoresis, proteins were electrophoretically transferred onto the nitrocellulose membrane (GE Healthcare, Amersham Protran Supported 0.45 µm NC) at 100 V for 90 min on ice in the transfer buffer (48 mM Tris–HCl and 39 mM glycine supplemented with 20% methanol). Transferred membrane was blocked with 5% (w/v) skim milk powder dissolved in TBS-T [20 mM Tris–HCl, pH 7.5, 150 mM NaCl and 0.1% (v/v) Tween 20] at room temperature for 1 h. The membrane was typically cropped into three pieces, namely the ‘top piece’ (from the top of the membrane to 75 kDa), the ‘middle piece’ (between 75 and 30 kDa) and the ‘bottom piece’ (from 30 kDa to the bottom of the membrane). All primary antibodies were used at 1 μg/ml final concentration and incubated in TBS-T containing 5% (by mass) bovine serum albumin with exception of α-tubulin and GAPDH antibodies that were diluted 1 : 5000 and 1 : 2000, respectively. The top piece was incubated with the indicated rabbit anti-LRRK2 phosphorylation site antibody multiplexed with mouse anti-LRRK2 C-terminus total antibody. […] Protein bands were acquired via near infrared fluorescent detection using the Odyssey CLx imaging system and quantified using the Image Studio software. […]

LRRK2 at Ser935 = test: LRRK2 Ser935 phospho-immunoblot in wild-type MEFs; type: cell-based, mouse
Method: Wild-type and homozygous LRRK2 [R1441C] […] All cells were grown at 37°C, 5% (by vol) CO2 in a humidified atmosphere and regularly tested for mycoplasma contamination.
Inhibitors were dissolved in dimethyl sulfoxide (DMSO) (Sigma, #D2650). The inhibitors were diluted 1000× into cell medium. The equivalent volume of DMSO was added to the minus inhibitor controls. Experiments were performed in six-well plates, 10 cm dishes or 15 cm dishes depending on the amount of cell extract required.
Lysates were incubated on ice for 30 min and clarified by centrifugation at 20 800×g at 4°C for 20 min. Supernatants were quantified by Bradford assay (Bio-Rad Protein Assay Dye Reagent Concentrate #5000006) and samples prepared in 1× lithium dodecyl sulfate sample buffer final concentration (NuPage LDS Sample buffer 4× Invitrogen, #NP0008). When not deployed immediately, lysates were snap-frozen in liquid nitrogen and stored at −80°C until use.
Cell extracts were mixed with a quarter of a volume of NuPage LDS Sample buffer 4× Invitrogen and heated at 95°C for 5 min. […] At the end of electrophoresis, proteins were electrophoretically transferred onto the nitrocellulose membrane (GE Healthcare, Amersham Protran Supported 0.45 µm NC) at 100 V for 90 min on ice in the transfer buffer (48 mM Tris–HCl and 39 mM glycine supplemented with 20% methanol). Transferred membrane was blocked with 5% (w/v) skim milk powder dissolved in TBS-T [20 mM Tris–HCl, pH 7.5, 150 mM NaCl and 0.1% (v/v) Tween 20] at room temperature for 1 h. The membrane was typically cropped into three pieces, namely the ‘top piece’ (from the top of the membrane to 75 kDa), the ‘middle piece’ (between 75 and 30 kDa) and the ‘bottom piece’ (from 30 kDa to the bottom of the membrane). All primary antibodies were used at 1 μg/ml final concentration and incubated in TBS-T containing 5% (by mass) bovine serum albumin with exception of α-tubulin and GAPDH antibodies that were diluted 1 : 5000 and 1 : 2000, respectively. The top piece was incubated with the indicated rabbit anti-LRRK2 phosphorylation site antibody multiplexed with mouse anti-LRRK2 C-terminus total antibody. The middle piece was incubated with mouse anti-GAPDH or anti-α-tubulin antibody. The bottom pieces were incubated with indicated total and phospho-Rab antibodies. Membranes were incubated in primary antibody overnight at 4°C. Prior to secondary antibody incubation, membranes were washed three times with TBS-T for 10 min each. […] Membranes were washed with TBS-T for three times with a 10 min incubation for each wash. Protein bands were acquired via near infrared fluorescent detection using the Odyssey CLx imaging system and quantified using the Image Studio software.

## Cc1ccc(C(=O)Nc2ccc(CN3CCN(C)CC3)c(C(F)(F)F)c2)cc1C#Cc1cnc2[nH]ncc2c1 [GZD-824]
Rab10 phosphorylation
  concentration giving maximal inhibition of Rab10 phosphorylation: 300 nM
LRRK2 at Ser935; MEFs, 2 h dose response
  effect on LRRK2 Ser935 phosphorylation: did not induce dephosphorylation
LRRK2 at Ser935; wild-type MEFs, 1 μM, 24 h
  Ser935 phosphorylation over 24 h time course: unaffected
LRRK2 at Ser935; wild-type MEFs, 10 μM, 2 h, Supplemental Figure S2A
  effect on LRRK2 Ser935 phosphorylation: did not reduce LRRK2 phosphorylation at Ser935 significantly
